Activity calls are given as the source filed them. The rule behind the calls is not given here.

The assay has as its system HEK293. Nature of the assay: Inhibition of LPS-induced NF-kappaB nuclear transactivation in HEK293 cells transfected with TLR4 coexpressing MD2 and CD14 co-receptor assessed as alkaline phosphatase activity by spectrophotometry. It counts as cell-based. As to conditions: Homo sapiens.
`CCCCCCCCCCCCCCCCNCCCNCCCNCCCCNCCCNCCCN`: the result was Active. To `CCCCCCCCCCCCCCCCNCCCNCCCNCCCN` belongs “Active”; to `CCCCCCCCCCCCCCCCNCCCNCCCNCCCNCCCN`, “Active”. For `CCCCCCCCCCCCCCCCNCCCNCCCNCCCNCCCNCCCN` the value was “Active”; for `CCCCCCCCCCCCCCCCNCCCNCCCNCCCCNCCCN`, “Active”.

On to `CCCCCCCCCCCCCCCCNCCCNCCCCNCCCN`, for which the outcome was Active.

For the origin of these results see ChEMBL document CHEMBL1138604, “Structure-activity relationships of lipopolysaccharide sequestration in N-alkylpolyamines” (Bioorg Med Chem Lett, 2009).
